The term pIC50 denotes the IC50 on a negative log10 scale, so that one unit is a factor of ten. A lower pIC50 goes with a large IC50. By fold induction is commonly meant the ratio of treated to control signal.

The values below come from patent US20250296939A1, “BENZOTHIOPHENE COMPOUND” (Kyoto Pharmaceutical Industries, Ltd., priority 2022, published 2025).

Each structure is given as a SMILES string. pIC50: −log10 of the molar value.

The target in assay [1] is GST-fused human Keap1 (amino acid residues: 325-642) protein (Homo sapiens (Human), UniProt Q14145). The assay is described as follows: FP assay (in vitro): inhibition of binding between Nrf2 and Keap1 by fluorescence polarization. The note with it: 20 nM GST-fused human Keap1, 10 nM FITC-labeled Nrf2 peptide, 2 hr at room temperature. Here is the method:
Experimental Example 1: FP Assay (In Vitro)
The inhibitory activity of test compounds on the binding between Nrf2 and Keap1 was determined by fluorescence polarization. A solution of 50 mM Tris-HCl pH.8.0 (NACALAI, REF: 06938-15), and 5 mM DTT (SIGMA-ALDRICH, REF: 646563-10X.5 mL) was used as a buffer solution. 8 μL of a buffer solution containing 40 nM GST-fused human Keap1 (amino acid residues: 325-642) protein (Protein tech, REF: Ag0779) was taken in a black 384-well plate (final concentration 20 nM), and 4 μL of the test compound solution prepared to each concentration in buffer solution was added thereto. A well containing a portion of the buffer solution without Keap1 was placed as a negative control. A well with no compound was used as a positive control. 40 nM of FITC-labeled Nrf2 peptide (FITC-X-LQLDEETGEFLPIQ (X=ε-Acp), Peptide Institute Inc.) was added thereto (10 nM final concentration). The wells were incubated at room temperature for 2 hr, and then fluorescence polarization was measured with a plate reader SPECTRAMAX Paradigm (Molecular devices) at excitation wavelength of 485 nm and fluorescence wavelength of 535 nm. The fluorescence polarization of the negative control was set to 100% inhibition and that of the positive control to 0% inhibition, and the inhibitory rate upon addition of the test compound was calculated using the following formula.
A general note: In fluorescence polarisation assays a small probe gives low polarisation when free and higher when bound to something large.

For assay [2], the system named is NQO1 activity in Hepa1c1c7 cells. The assay is described as follows: NAD(P)H: quinone oxidoreductase-1 (NQO1) enzyme induction assay (in vitro). The assay is classed as cell-based, mouse. The note with it: Mus musculus, Hepa-1c1c7, NQO1 activity upon addition of 400 nM of test compound, about 48 hr, ratio from the base without the compound. The procedure: Experimental Example 2: NAD(P)H: Quinone Oxidoreductase-1 (NQO1) Enzyme Induction Assay (In Vitro)
The NQO1 assay was performed based on a previous report (Methods in Enzymology 2004; 382: 243-258). Hepa1c1c7 cells (mouse hepatocyte cell line, ATCC, cat. no. CRL-2026) were cultured in D-MEM medium containing 10% FBS and 1% penicillin/streptomycin (5% CO2, 37° C.), and seeded into 96-well plates (Corning REF. 353072) at 1×10^4 cells/well. A portion of the wells were prepared with medium only for background measurement without seeding cells. The next day, 400 nM of the test compound (0.004% of the final concentration in DMSO) dissolved in DMSO was added thereto, and the wells were incubated for about 48 hr. A well without adding the test compound was prepared for base activity assay in part.
Cell lysate (solution containing 0.8% digitonin, 2 mM EDTA), reaction solution (solution containing 25 mM Tris-HCl, 0.07% albumin, 0.01% Tween-20, 2 U/mL glucose-6-phosphate dehydrogenase, 5 μM flavin adenine dinucleotide, 1 μM glucose-6-phosphate, 30 μM nicotinamide adenine dinucleotide phosphate, 0.03% 3-(4,5-dimethyl-2-thiazolyl)-2,5-diphenyltetrazolium bromide (MTT), and 50 μM menadione), stop solution (solution containing 0.3 mM dicoumarol and 5 mM potassium dihydrogen phosphate, pH 7.4) were prepared. After the medium was removed, 50 μL of the cell lysate was added and incubated at 37° C. for 10 minutes, followed by shaking at room temperature for 10 minutes. 200 μL of reaction solution was added thereto, and allowed to stand for 5 minutes at room temperature. 50 μL of the stop solution was added thereto, and absorbance was measured at 610 nm on a SpectraMax PLUS384 (Molecular devices) or POWERSCAN HT (DS Pharma Biomedical). The test results were analyzed in Excel, and the NQO1 activity upon addition of 400 nM of test compound was calculated as a ratio from the base without the compound.
The results of each test compound in this test are shown in the following Table 2 (A: 5<NQO1 activity ratio, B: 3<NQO1 activity ratio 5, C: 1.5<NQO1 activity ratio 3).

Chain of GST-fused human Keap1 (amino acid residues: 325-642) protein (Q14145 325-624 limits assumed): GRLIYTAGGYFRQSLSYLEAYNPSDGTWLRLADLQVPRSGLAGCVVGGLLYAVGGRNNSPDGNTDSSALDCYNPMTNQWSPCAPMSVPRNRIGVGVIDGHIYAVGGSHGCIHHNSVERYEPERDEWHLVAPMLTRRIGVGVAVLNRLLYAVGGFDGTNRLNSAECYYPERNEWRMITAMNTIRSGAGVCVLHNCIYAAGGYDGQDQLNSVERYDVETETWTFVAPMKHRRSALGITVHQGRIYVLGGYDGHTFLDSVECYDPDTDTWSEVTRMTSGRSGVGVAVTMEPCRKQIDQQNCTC

In assay [1], `CC[C@@H]1CN(Cc2cc([C@@H](CC(=O)O)c3cc(OC)c4c(nnn4C)c3C)cc3ccsc23)Cc2nc(O)ccc2O1` [Example 21, (3R)-3-(7-{[(2R)-2-Ethyl-7-hydroxy-2,3-dihydropyrido[2,3-f][1,4]oxazepin-4(5H)-yl]methyl}-1-benzothiophen-5-yl)-3-(7-methoxy-1,4-dimethyl-1H-benzotriazol-5-yl)propanoic acid] had a pIC50 of 7.52 to 8.00. For the same compound, the fold induction at 0.4 µM in assay [2] was > 5.
Turning to `CC[C@@H]1CN(Cc2cc([C@H](CC(=O)O)c3cc(OC)c4c(nnn4C)c3C)cc3ccsc23)Cc2nc(O)ccc2O1` [Example 22, (3S)-3-(7-{[(2R)-2-Ethyl-7-hydroxy-2,3-dihydropyrido[2,3-f][1,4]oxazepin-4(5H)-yl]methyl}-1-benzothiophen-5-yl)-3-(7-methoxy-1,4-dimethyl-1H-benzotriazol-5-yl)propanoic acid], the pIC50 in assay [1] is ≥ 8.00. Further, the fold induction at 0.4 µM in assay [2] was 3 to 5.
For `CC[C@@H]1CN(Cc2cc([C@@H](CC(=O)O)c3cnc4c(nnn4C)c3C)cc3ccsc23)Cc2nc(O)ccc2O1` [Example 23, (3R)-3-(3,7-Dimethyl-3H-[1,2,3]triazolo[4,5-b]pyridin-6-yl)-3-(7-{[(2R)-2-ethyl-7-hydroxy-2,3-dihydropyrido[2,3-f][1,4]oxazepin-4(5H)-yl]methyl}-1-benzothiophen-5-yl)propanoic acid], in assay [1], the pIC50 is 6.52 to 7.52. Further, the fold induction at 0.4 µM in assay [2] was in the range of 3 to 5.
In assay [1], `CC[C@@H]1CN(Cc2cc([C@H](CC(=O)O)c3cnc4c(nnn4C)c3C)cc3ccsc23)Cc2nc(O)ccc2O1` [Example 24, (3S)-3-(3,7-Dimethyl-3H-[1,2,3]triazolo[4,5-b]pyridin-6-yl)-3-(7-{[(2R)-2-ethyl-7-hydroxy-2,3-dihydropyrido[2,3-f][1,4]oxazepin-4(5H)-yl]methyl}-1-benzothiophen-5-yl)propanoic acid] showed a negative-log IC50 (pIC50) of 7.52 to 8.00. The fold induction at 0.4 µM in assay [2] lay within 3 to 5.
On to `CC[C@@H]1CN(Cc2cc([C@@H](CC(=O)O)c3ccc4c(nnn4CCN(C)C)c3C)cc3ccsc23)Cc2nc(O)ccc2O1` [Example 25, (3R)-3-{1-[2-(Dimethylamino)ethyl]-4-methyl-1H-benzotriazol-5-yl}-3-(7-{[(2R)-2-ethyl-7-hydroxy-2,3-dihydropyrido[2,3-f][1,4]oxazepin-4(5H)-yl]methyl}-1-benzothiophen-5-yl)propanoic acid], for which the pIC50 in assay [1] was 7.52 to 8.00. For the same compound, the fold induction at 0.4 µM in assay [2] is > 5.
Turning to `CC[C@@H]1CN(Cc2cc([C@H](CC(=O)O)c3ccc4c(nnn4CCN(C)C)c3C)cc3ccsc23)Cc2nc(O)ccc2O1` [Example 26, (3S)-3-{1-[2-(Dimethylamino)ethyl]-4-methyl-1H-benzotriazol-5-yl}-3-(7-{[(2R)-2-ethyl-7-hydroxy-2,3-dihydropyrido[2,3-f][1,4]oxazepin-4(5H)-yl]methyl}-1-benzothiophen-5-yl)propanoic acid], the pIC50 in assay [1] was 7.52 to 8.00. Also, in assay [2], the fold induction at 0.4 µM lay in the range of 3 to 5.
Regarding `CC[C@@H]1CN(Cc2cc([C@@H](CC(=O)O)c3cc(C(F)(F)F)c4c(nnn4C)c3C)cc3ccsc23)Cc2nc(O)ccc2O1` [Example 29, (3R)-3-[1,4-Dimethyl-7-(trifluoromethyl)-1H-benzotriazol-5-yl]-3-(7-{[(2R)-2-ethyl-7-hydroxy-2,3-dihydropyrido[2,3-f][1,4]oxazepin-4(5H)-yl]methyl}-1-benzothiophen-5-yl)propanoic acid], in assay [1], the pIC50 is 7.52 to 8.00. For the same compound, the fold induction at 0.4 µM in assay [2] was > 5.
In the case of `CC[C@@H]1CN(Cc2cc([C@H](CC(=O)O)c3cc(C(F)(F)F)c4c(nnn4C)c3C)cc3ccsc23)Cc2nc(O)ccc2O1` [Example 30, (3S)-3-[1,4-Dimethyl-7-(trifluoromethyl)-1H-benzotriazol-5-yl]-3-(7-{[(2R)-2-ethyl-7-hydroxy-2,3-dihydropyrido[2,3-f][1,4]oxazepin-4(5H)-yl]methyl}-1-benzothiophen-5-yl)propanoic acid], the pIC50 in assay [1] is 7.52 to 8.00. The fold induction at 0.4 µM in assay [2] was > 5.
As to `CC[C@@H]1CN(Cc2cc([C@@H](CC(=O)O)c3cc(Cl)c4c(nnn4C)c3C)cc3ccsc23)Cc2nc(O)ccc2O1` [Example 31, (3R)-3-(7-Chloro-1,4-dimethyl-1H-benzotriazol-5-yl)-3-(7-{[(2R)-2-ethyl-7-hydroxy-2,3-dihydropyrido[2,3-f][1,4]oxazepin-4(5H)-yl]methyl}-1-benzothiophen-5-yl)propanoic acid], the pIC50 in assay [1] was ≥ 8.00. Also, the fold induction at 0.4 µM in assay [2] was > 5.
Take `CC[C@@H]1CN(Cc2cc([C@H](CC(=O)O)c3cc(Cl)c4c(nnn4C)c3C)cc3ccsc23)Cc2nc(O)ccc2O1` [Example 32, (3S)-3-(7-Chloro-1,4-dimethyl-1H-benzotriazol-5-yl)-3-(7-{[(2R)-2-ethyl-7-hydroxy-2,3-dihydropyrido[2,3-f][1,4]oxazepin-4(5H)-yl]methyl}-1-benzothiophen-5-yl)propanoic acid]: the pIC50 in assay [1] was 7.52 to 8.00. Besides, the fold induction at 0.4 µM in assay [2] is > 5.
Compound `CC[C@@H]1CN(Cc2cc([C@@H](CC(=O)O)c3cc(C#N)c4c(nnn4C)c3C)cc3ccsc23)Cc2nc(O)ccc2O1` [Example 33, (3R)-3-(7-Cyano-1,4-dimethyl-1H-benzotriazol-5-yl)-3-(7-{[(2R)-2-ethyl-7-hydroxy-2,3-dihydropyrido[2,3-f][1,4]oxazepin-4(5H)-yl]methyl}-1-benzothiophen-5-yl)propanoic acid] showed a pIC50 in assay [1] of 7.52 to 8.00. The fold induction at 0.4 µM in assay [2] was > 5.
The corresponding values for `CC[C@@H]1CN(Cc2cc([C@H](CC(=O)O)c3cc(C#N)c4c(nnn4C)c3C)cc3ccsc23)Cc2nc(O)ccc2O1` [Example 34, (3S)-3-(7-Cyano-1,4-dimethyl-1H-benzotriazol-5-yl)-3-(7-{[(2R)-2-ethyl-7-hydroxy-2,3-dihydropyrido[2,3-f][1,4]oxazepin-4(5H)-yl]methyl}-1-benzothiophen-5-yl)propanoic acid] are 7.52 to 8.00 and 3 to 5.
Compound `CC[C@@H]1CN(Cc2cc([C@@H](CC(=O)O)c3cc(C4CC4)c4c(nnn4C)c3C)cc3ccsc23)Cc2nc(O)ccc2O1` [Example 35, (3R)-3-(7-Cyclopropyl-1,4-dimethyl-1H-benzotriazol-5-yl)-3-(7-{[(2R)-2-ethyl-7-hydroxy-2,3-dihydropyrido[2,3-f][1,4]oxazepin-4(5H)-yl]methyl}-1-benzothiophen-5-yl)propanoic acid] gave a pIC50 in assay [1] of 7.52 to 8.00. Further, the fold induction at 0.4 µM in assay [2] was > 5.
Turning to `CC[C@@H]1CN(Cc2cc([C@H](CC(=O)O)c3cc(C4CC4)c4c(nnn4C)c3C)cc3ccsc23)Cc2nc(O)ccc2O1` [Example 36, (3S)-3-(7-Cyclopropyl-1,4-dimethyl-1H-benzotriazol-5-yl)-3-(7-{[(2R)-2-ethyl-7-hydroxy-2,3-dihydropyrido[2,3-f][1,4]oxazepin-4(5H)-yl]methyl}-1-benzothiophen-5-yl)propanoic acid], in assay [1], the pIC50 was 7.52 to 8.00. For the same compound, the fold induction at 0.4 µM in assay [2] is > 5.
As for `Cc1c([C@H](CC(=O)O)c2cc(CN3Cc4nc(O)ccc4O[C@H](C(F)(F)F)C3)c3sccc3c2)ccc2c1nnn2C` [Example 37, (3R)-3-(1,4-Dimethyl-1H-benzotriazol-5-yl)-3-(7-{[(2S)-7-hydroxy-2-(trifluoromethyl)-2,3-dihydropyrido[2,3-f][1,4]oxazepin-4(5H)-yl]methyl}-1-benzothiophen-5-yl)propanoic acid], in assay [1], the pIC50 is 7.52 to 8.00. Further, the fold induction at 0.4 µM in assay [2] is > 5.
